Values quoted from earlier work as cited in patent publication US11575141B2 (Robert Bosch GmbH, priority 2020, dated 2023).
Read-outs that look alike come from different tables or passages of the source.

Row | Structure (SMILES) | pKa values (pKa source in footnotes) (first pKa value listed) | pKa values (pKa source in footnotes) (second pKa value listed) | pKa values (pKa source in footnotes) (fourth pKa value listed) | pKa values (pKa source in footnotes) (third pKa value listed)
1 | NP(=O)(O)O [Example 10, Phosphoramidate] | ~3.4 | ~8.3 |  | 
2 | O=P(O)(O)P(=O)(O)O [Example 2, Hypophosphoric acid] | 2.2 | 2.8 | 10.0 | 7.3
3 | O=[PH](O)O [Example 14, Phosphonic acid] | 1.1-2.3 | 5.3-7.2 |  | 
4 | O=P(O)(O)OP(=O)(O)OP(=O)(O)O [Example 5, Triphosphoric acid] | 0.89 ^3 |  |  | 
